Test results taken from the NIST ThermoML archive (doi:10.1016/j.jct.2016.11.017).
Numbers after ± are expanded uncertainties.

Assays:
[1] = Molar enthalpy of transition or fusion; details: Crystal; DSC
[2] = Crystal; DTA

In the case of `C[C@@H]1CC[C@@]2(OC1)O[C@H]1C[C@H]3[C@@H]4CC=C5C[C@@H](O)CC[C@]5(C)[C@H]4CC[C@]3(C)[C@H]1[C@@H]2C` [Diosgenin], the “Molar enthalpy of transition or fusion” value [1] is reported as 12.5 ± 0.335 kcal/mol and the Normal melting temperature [2] is reported as 201.2 ± 0.4 °C.

For `C[C@]12CC[C@@H]3c4ccc(O)cc4CC[C@H]3[C@@H]1C[C@@H](O)[C@@H]2O` [Estriol], the “Molar enthalpy of transition or fusion” value [1] was 10.2 ± 0.287 kcal/mol and the Normal melting temperature [2] was 280.1 ± 0.4 °C.
